Assay results as given in patent US8933070B2, “Methods of targeting PTEN mutant diseases and compositions therefor” (University Health Network, priority 2010, dated 2015).

Legend:
PLK2 = biological target: T1, PLK2 (Homo sapiens, UniProt Q9NYY3); experiment: PLK2 inhibition assay (Z-Lyte); format: biochemical; settings: for inhibition at 10 µM: dose of 10 μM, read-out: PLK2 relative inhibition percentage
T1 construct: purchased Invitrogen PV4204
Protocol: (§1) PLK2 inhibition was determined using the Z-Lyte assay kit from Invitrogen (cat# PV3802). The assay was performed using the recommended manufacturer's instructions with 60 μM ATP and 133 nM PLK2 (Invitrogen cat #PV4204). The % inhibition values were determined according to the manufacturer's directions and IC50 values were obtained using a non-linear 4 point logistic curve fit (XLfit4, IDBS)

PLK1 = biological target: T2, PLK1 (Homo sapiens, UniProt P53350); experiment: PLK1 inhibition assay (Z-Lyte); format: biochemical; settings: dose of 10 μM; read-out: PLK1 relative inhibition percentage
T2 construct: purchased Invitrogen PV3501
Protocol: PLK1 inhibition was determined using the Z-Lyte assay kit from Invitrogen (cat#PV3802). The assay was performed using the recommended manufacturer's instructions with 25 μM ATP and 8 nM PLK1 (Invitrogen cat #PV3501). The % inhibition values were determined according to the manufacturer's directions and IC50 values were obtained using a non-linear 4 point logistic curve fit (XLfit4, IDBS)

[1] = system: A549 lung cancer cell line; experiment: Cell growth inhibition, Sulforhodamine B (SRB) assay; format: cell-based; settings: Homo sapiens, A549, 120 h; 5 days, SRB; read-out: Cell Line GI50 Range A549
Protocol: (§2) Aliquots (20 μl) from each concentration were overlaid to 80 μl of the pre-seeded cells in the 96-plates to make final concentrations of 10 nM to 50 μM. The cells were cultured for 5 days before the Sulforhodamine B (SRB) assay was performed to determine the compound's cell growth inhibition activity.
(§3) Sulforhodamine B (Sigma, Canada) is a water-soluble dye that binds to the basic amino acids of cellular proteins. Thus, colorimetric measurement of the bound dye provides an estimate of the total protein mass that is related to the cell number. The cells are fixed in situ by gently aspirating off the culture media and adding 50 μl ice cold 10% Trichloroacetic Acid (TCA) per well and incubated at 4° C. for 30-60 min. The plates are washed with water five times and allowed to air dry for 5 min. Addition of 50 μl 0.4% (w/v) SRB solution in 1% (v/v) acetic acid to each well and incubatation for […] at RT completes the staining reaction. Following staining, plates are washed four times with 1% acetic acid to remove unbound dye and then allowed to air dry for 5 min. […] Absorbance is read at 570 nm.
(§4) The percentage (%) of relative growth inhibition was calculated by comparing to DMSO-treated only cells (100%). GI50's were determined for compounds with cytotoxic activity. The GI50 was calculated using GraphPad PRISM software (GraphPad Software, Inc., USA).

[2] = system: SW620 colon cancer cell line; experiment: as above; format: cell-based; settings: Homo sapiens, SW-620, 120 h; 5 days, SRB; read-out: Cell Line GI50 Range SW620
Protocol: as §2, §3, §4

[3] = system: MCF-7 luminal breast cancer cell line; experiment: as above; format: cell-based; settings: Homo sapiens, MCF7, 120 h; 5 days, SRB; read-out: Cell Line GI50 Range MCF-7
Protocol: as §2, §3, §4

[4] = system: human mammary epithelial primary cells (HMEC); experiment: as above; format: cell-based; settings: 120 h, 5 days, SRB, normal primary breast cells, read-out: Cell Line GI50 Range HMEC
Protocol: as §2, §3, §4

[5] = system: MDA-MB-468 basal breast cancer cell line; experiment: as above; format: cell-based; settings: Homo sapiens, MDA-MB-468, 120 h; 5 days, SRB; read-out: Cell Line GI50 Range MDA-MB-468
[6] = system: HCC1954 basal breast cancer cell line; experiment: as above; format: cell-based; settings: Homo sapiens, HCC1954, 120 h; 5 days, SRB; Table 5; read-out: Cell Line GI50 Range HCC1954
Protocol: as §2, §3, §4
The SRB assay described above was used to assay test compounds against the extended panel (Table 6).

human PLK4 = biological target: T3, human PLK4 (Homo sapiens, UniProt O00444); experiment: PLK4 inhibition assay (indirect ELISA); format: biochemical; settings: read-out: IC50 Ranges PLK4
T3 construct: amino terminal GST fusion of residues 1-391 of human PLK4; made in house; host or cells: E. coli
T3 sequence (O00444 1-391): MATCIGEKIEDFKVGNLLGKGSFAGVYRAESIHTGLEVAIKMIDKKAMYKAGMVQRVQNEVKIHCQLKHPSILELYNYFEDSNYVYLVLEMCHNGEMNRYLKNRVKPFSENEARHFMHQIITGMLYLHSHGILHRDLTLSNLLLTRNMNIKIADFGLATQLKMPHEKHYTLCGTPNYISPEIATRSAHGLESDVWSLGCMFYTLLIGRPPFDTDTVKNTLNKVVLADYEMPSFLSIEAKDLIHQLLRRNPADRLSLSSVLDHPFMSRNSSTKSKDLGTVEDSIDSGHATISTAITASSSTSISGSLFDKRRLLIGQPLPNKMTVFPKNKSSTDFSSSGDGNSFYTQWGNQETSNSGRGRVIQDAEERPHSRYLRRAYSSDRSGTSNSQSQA
Protocol: The protein was purified from clarified cell extracts after induction at 15° C. overnight using glutathione sepharose, gel permeation chromatography, and ion exchange (Resource Q). The resulting protein was dephosphorylated with lambda phosphatase (NEB cat# P0753), and resolved from the phosphatase using gluthione sepharose. The dephosphorylated GST-PLK4 was stored in aliquots at −80° C. until use.
PLK4 activity was measured using an indirect ELISA detection system. […] The colourimetric reaction was allowed to continue for 5 minutes, followed by addition of stop solution (0.5 N sulphuric acid), and quantified by detection at 450 nm with either a monochromatic or filter based plate reader (Molecular Devices M5 or Beckman DTX880, respectively).
Compounds were pre-incubated in the presence of enzyme for 15 minutes prior to addition of ATP and the activity remaining quantified using the above described activity assay. […] The IC50 value was determined using a non-linear 4 point logistic curve fit (XLfit4, IDBS) with the formula; (A+(B/(1+((x/C)^D)))), where A=background value, B=range, C=inflection point, D=curve fit parameter.

FGFR1 = experiment: Millipore kinase assay (radiolabelled phosphopeptide filter binding), IC50 estimate; format: biochemical; settings: estimated from inhibition at three compound concentrations; ATP at Km; read-out: IC50 value estimates against FGFR1
Protocol: For a number of compounds, IC50 values were estimated against kinases of interest based on Millipore protocols. Kinase assays at Millipore were performed using a radiolabelled phosphopeptide filter binding detection system, in duplicate, at each compound concentration. The ATP substrate concentration in the reactions was at the Km for each enzyme.
To allow for a more direct comparison of compound inhibition, an IC50 value was estimated from the inhibition determined at three compound concentrations. Several assumptions were made to allow this calculation using a 4 parameter non linear curve fit model, including full inhibition set at 100%, no inhibition set to 0%, and a curve fit parameter set at 1. The inflection point was reported as the estimated […].

AMPKalpha = experiment: Kinase selectivity assay (CEREP, HTRF); format: biochemical, human
Protocol: The inhibitory activity of selected compounds was evaluated against a panel of 45 different kinase enzymes by CEREP, France. The assays were performed using standard HTRF assay methods as documented by CEREP against the human orthologues of Abl kinase, Akt1/PKBa, AMPKa, BMX kinase (Etk), Brk, CaMK2a, CaMK4, CDC2/CDK1 (cycB), CHK1, CHK2, c-Met kinase, CSK, EphB4 kinase, ERK1, ERK2 (P42mapk), FGFR2 kinase, FGFR4 kinase, FLT-1 kinase (VEGFR1), FLT-3 kinase, Fyn kinase, IGF1R kinase, IRK (InsR), JNK 2, KDR kinase (VEGFR2), Lck kinase, Lyn kinase, MAPKAPK2, MEK1/MAP2K1, p38a kinase, p38d kinase, p38g kinase, PDGFRb kinase, PDK1, PKA, PKCa, PKCb1, PKCb2, PKCg, Ret kinase, ROCK2, RSK2, Src kinase, Syk, and TRKA. The % Inhibition was determined by the formula; % Inhibition=100×(1−(experimental value−background value)/(high activity control−background value)).

Aurora B = biological target: T4, Aurora B (Homo sapiens, UniProt Q96GD4); experiment: Aurora B inhibition assay (Z-Lyte); format: biochemical; settings: read-out: IC50 Ranges Aurura B
T4 construct: purchased Invitrogen PV3970
Protocol: Aurora B inhibition was determined using the Z-Lyte assay kit from Invitrogen. […] The % inhibition values were determined according to the manufacturer's directions and IC50 values were obtained using a non-linear 4 point logistic curve fit (XLfit4, IDBS).

Aurora A = biological target: T5, Aurora A (Homo sapiens, UniProt O14965); experiment: Aurora A inhibition assay (Z-Lyte); format: biochemical; settings: for inhibition at 10 µM: dose of 10 μM, read-out: Aurora A relative inhibition percentage
T5 construct: purchased Invitrogen PV3612
T5 sequence (O14965 1-403): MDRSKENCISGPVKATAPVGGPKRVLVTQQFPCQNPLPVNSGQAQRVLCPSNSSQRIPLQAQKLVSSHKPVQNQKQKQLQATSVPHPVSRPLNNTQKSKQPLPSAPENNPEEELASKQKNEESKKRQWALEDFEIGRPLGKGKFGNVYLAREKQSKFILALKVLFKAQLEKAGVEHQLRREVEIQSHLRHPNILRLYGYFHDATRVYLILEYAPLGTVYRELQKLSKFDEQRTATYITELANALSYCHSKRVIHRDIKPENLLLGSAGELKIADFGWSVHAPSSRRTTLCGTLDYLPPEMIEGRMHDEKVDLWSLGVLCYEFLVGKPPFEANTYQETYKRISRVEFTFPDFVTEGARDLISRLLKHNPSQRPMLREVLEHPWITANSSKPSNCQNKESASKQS
Protocol: as §1, with “Aurora A” for “PLK2”, “Invitrogen.” for “Invitrogen (cat# PV3802).”, “20 nM” for “60 μM”, “12” for “133”, “#PV3612).” for “#PV4204).”

T1 sequence (Q9NYY3 whole entry): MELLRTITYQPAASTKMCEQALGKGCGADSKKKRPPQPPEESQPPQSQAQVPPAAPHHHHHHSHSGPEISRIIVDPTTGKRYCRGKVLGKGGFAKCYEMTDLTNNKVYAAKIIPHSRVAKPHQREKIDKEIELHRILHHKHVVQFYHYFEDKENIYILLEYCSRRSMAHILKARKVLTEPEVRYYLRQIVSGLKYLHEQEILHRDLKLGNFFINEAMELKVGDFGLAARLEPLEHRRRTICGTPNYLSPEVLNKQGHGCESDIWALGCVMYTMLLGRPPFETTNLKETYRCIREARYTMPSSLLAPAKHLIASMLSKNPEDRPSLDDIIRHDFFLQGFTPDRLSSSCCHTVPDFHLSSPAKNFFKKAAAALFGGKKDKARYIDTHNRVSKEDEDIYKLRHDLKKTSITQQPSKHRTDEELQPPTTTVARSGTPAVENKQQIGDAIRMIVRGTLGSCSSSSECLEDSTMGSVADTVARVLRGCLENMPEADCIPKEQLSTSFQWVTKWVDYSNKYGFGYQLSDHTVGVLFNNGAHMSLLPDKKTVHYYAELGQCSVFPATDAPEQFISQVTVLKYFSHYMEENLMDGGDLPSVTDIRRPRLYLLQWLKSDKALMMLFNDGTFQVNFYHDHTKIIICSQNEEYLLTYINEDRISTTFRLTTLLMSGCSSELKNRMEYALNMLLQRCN
T4 sequence (Q96GD4 whole entry): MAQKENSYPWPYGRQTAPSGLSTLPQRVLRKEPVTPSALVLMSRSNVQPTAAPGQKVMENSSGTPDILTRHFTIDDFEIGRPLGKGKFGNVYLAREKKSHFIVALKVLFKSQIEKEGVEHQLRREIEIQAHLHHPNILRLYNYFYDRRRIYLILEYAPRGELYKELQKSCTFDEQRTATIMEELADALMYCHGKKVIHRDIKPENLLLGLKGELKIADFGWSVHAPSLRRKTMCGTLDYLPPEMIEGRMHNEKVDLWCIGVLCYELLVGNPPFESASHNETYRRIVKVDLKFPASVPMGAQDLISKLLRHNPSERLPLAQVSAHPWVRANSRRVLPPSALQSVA
T2 sequence (P53350 whole entry): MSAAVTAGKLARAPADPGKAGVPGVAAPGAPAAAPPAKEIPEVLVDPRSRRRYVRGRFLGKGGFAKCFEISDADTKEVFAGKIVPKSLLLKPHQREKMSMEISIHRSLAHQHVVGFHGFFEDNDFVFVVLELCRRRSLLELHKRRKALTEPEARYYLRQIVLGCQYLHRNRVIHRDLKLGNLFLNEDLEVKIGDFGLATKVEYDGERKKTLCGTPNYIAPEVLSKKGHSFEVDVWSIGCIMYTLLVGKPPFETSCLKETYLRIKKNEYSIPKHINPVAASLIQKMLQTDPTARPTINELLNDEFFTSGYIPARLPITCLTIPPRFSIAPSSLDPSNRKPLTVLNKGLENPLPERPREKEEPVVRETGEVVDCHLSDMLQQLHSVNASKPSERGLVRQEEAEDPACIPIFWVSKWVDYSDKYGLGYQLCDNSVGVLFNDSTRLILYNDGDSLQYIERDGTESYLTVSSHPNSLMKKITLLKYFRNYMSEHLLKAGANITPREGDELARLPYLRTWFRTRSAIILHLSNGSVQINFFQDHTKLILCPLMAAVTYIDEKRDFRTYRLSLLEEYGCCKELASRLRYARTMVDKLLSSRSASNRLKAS

For CN(C)Cc1ccc(/C=C/c2n[nH]c3cc([C@@H]4C[C@@]45C(=O)Nc4ccccc45)ccc23)cc1 (racemic) [Compound 5], the inhibition at 10 µM (PLK2) was < 50% and the inhibition at 10 µM (PLK1) was < 50%.
For O=C1Nc2ccccc2[C@@]12C[C@@H]2c1ccc2c(/C=C/c3ccncc3)n[nH]c2c1 (racemic) [Compound 6], the inhibition at 10 µM (PLK2) was < 50%, the GI50 [1] was < 5 µM and the GI50 [2] was < 5 µM. The GI50 [3] was < 5 µM, the GI50 [4] was 5 to 20 µM and the GI50 [5] was < 5 µM. For the same compound, the GI50 [6] was < 5 µM.
O=C1Nc2ccccc2[C@@]12C[C@@H]2c1ccc2cn[nH]c2c1 (racemic) [Compound 40] was tested, and the IC50 (PLK2; read-out: IC50 Ranges PLK2) was > 50 µM.
For COc1ccc2c(c1)/C(=C\c1ccc3c(/C=C/c4ccc(CN(C)C)cc4)n[nH]c3c1)C(=O)N2 [Compound 1], the IC50 (human PLK4) was < 5 µM.
With O=C1Nc2ccccc2C1=Cc1ccc2c(/C=C/c3ccccn3)n[nH]c2c1 [Compound 9] the IC50 (FGFR1) was < 5 µM and the “% Inhibition at 10 μM Concentration” value (AMPKalpha) was 81%.
With Cc1ncsc1/C=C/c1n[nH]c2cc(/C=C3/C(=O)Nc4ccccc43)ccc12 [Compound 10] the IC50 (human PLK4) was < 5 µM and the IC50 (Aurora B) was < 5 µM.
With COc1ccc2c(c1)/C(=C\c1ccc3c(-c4ccc(N(C)C)nc4)n[nH]c3c1)C(=O)N2 [Compound 11] the IC50 (Aurora A; read-out: IC50 Ranges Aurora A) was < 5 µM, the IC50 (human PLK4) was < 5 µM and the IC50 (Aurora B) was < 5 µM.
With COc1ccc2c(c1)C1(CC1c1ccc3c(I)n[nH]c3c1)C(=O)N2 (centres unmarked) [Compound 12] the IC50 (human PLK4) was < 5 µM.
With O=C1Nc2ccccc2/C1=C\c1ccc2[nH]nnc2c1 [Compound 24] the “% Inhibition at 10 μM Concentration” value (AMPKalpha) was 15%.
O=C1Nc2ccccc2/C1=C\c1ccc2cn[nH]c2c1 [Compound 26] was tested, and the “% Inhibition at 10 μM Concentration” value (AMPKalpha) was 54%.
With O=C1Nc2ccccc2/C1=C\c1ccc2c(/C=C/c3ccncc3)n[nH]c2c1 [Compound 28] the IC50 (FGFR1) was < 5 µM.
In the case of O=C1Nc2ccccc2/C1=C\c1ccc2c(/C=C/c3ccccc3Cl)n[nH]c2c1 [Compound 29], the “% Inhibition at 10 μM Concentration” value (AMPKalpha) is reported as 8%.
COc1ccc2c(c1)C(=Cc1ccc3c(-c4ccc(N5CCN(C)CC5)nc4)n[nH]c3c1)C(=O)N2 [Compound 31] was tested, and the IC50 (FGFR1) was < 5 µM and the “% Inhibition at 10 μM Concentration” value (AMPKalpha) was 76%.
For COc1ccc2c(c1)[C@]1(C[C@H]1c1ccc3c(/C=C/c4ccc(CN5CCOCC5)cc4)n[nH]c3c1)C(=O)N2C [Compound 36], the inhibition at 10 µM (Aurora A) was > 50% and the IC50 (Aurora B) was < 5 µM.
With COc1ccc2c(c1)[C@]1(C[C@H]1c1ccc3c(/C=C/c4ccc(CN5C[C@@H](C)O[C@@H](C)C5)cc4)n[nH]c3c1)C(=O)N2 [Compound 37] the inhibition at 10 µM (Aurora A) was > 50%.
In the case of C[C@@H]1CN(Cc2ccc(/C=C/c3n[nH]c4cc([C@@H]5C[C@@]56C(=O)Nc5ccccc56)ccc34)cc2)C[C@H](C)O1 [Compound 38], the inhibition at 10 µM (Aurora A) is reported as > 50%.
CN(C)Cc1ccc(/C=C/c2n[nH]c3cc(C=C4C(=O)Nc5ccccc54)ccc23)cc1 [Compound 39] was tested, and the inhibition at 10 µM (Aurora A) was > 50%, the inhibition at 10 µM (PLK1) was < 50% and the IC50 (FGFR1) was < 5 µM.
